Results: PubChem BioAssay AID330 (DTP/NCI, 2004)
Values joined by “and” are separate entries in the source; they are usually repeats but may differ in a detail not shown here. Equal values may be shown once. Inconclusive results and toxic doses are left out.

Test system: P388 leukemia ip, CD2F1 mice, survival T/C
Experiment: NCI In Vivo Anticancer Drug Screen. Data for tumor model P388 Leukemia (intraperitoneal) in CD2F1 (CDF1) mice
Conditions: endpoint: median survival time, higher = longer survival
Summary of the method: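 Mice carrying the transplanted tumor received test compound or vehicle. Survival was recorded in each group, and the value is the treated-group measurement divided by that of the vehicle-treated control group.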

[1] = dose: 100.0 mg/kg/injection, schedule: Q01DX001 (ip), vehicle: Klucel (hydroxypropylcellulose) (HPC)
[2] = dose: 200.0 mg/kg/injection, schedule: Q01DX001 (ip), vehicle: Klucel (hydroxypropylcellulose) (HPC)
[3] = dose: 400.0 mg/kg/injection, schedule: Q01DX001 (ip), vehicle: Klucel (hydroxypropylcellulose) (HPC)
[4] = dose: 60.0 mg/kg/injection, schedule: Q01DX005 (ip), vehicle: saline with Tween-80
[5] = dose: 50.0 mg/kg/injection, schedule: Q01DX009 (ip), vehicle: saline
[6] = dose: 100.0 mg/kg/injection, schedule: Q04DX003 (ip), vehicle: saline with Tween-80
[7] = dose: 200.0 mg/kg/injection, schedule: Q04DX003 (ip), vehicle: saline with Tween-80
[8] = dose: 50.0 mg/kg/injection, schedule: Q01DX009 (ip), vehicle: saline with Tween-80
[9] = dose: 100.0 mg/kg/injection, schedule: Q01DX009 (ip), vehicle: saline with Tween-80

Structure (SMILES): CCOC(=O)C(C(=O)OCC)n1c(=O)c2c(ncn2C)n(C)c1=O
- T/C [1]: 110 % of control
- T/C [2]: 101 % of control
- T/C [3]: 105 % of control

Structure (SMILES): COc1ccc(NS(=O)(=O)c2ccc(NC3OC(CO)C(O)C(O)C3NC(C)=O)cc2)nn1 (configuration not stated)
- T/C (dose: 50.0 mg/kg/injection, schedule: Q01DX005 (ip), vehicle: saline): 104 % of control
- T/C (dose: 100.0 mg/kg/injection, schedule: Q01DX005 (ip), vehicle: saline): 100 % of control
- T/C (dose: 200.0 mg/kg/injection, schedule: Q01DX005 (ip), vehicle: saline): 104 % of control

Structure (SMILES): c1ccc(SCc2ccc3c(c2)OCO3)cc1
- T/C [1]: 107 % of control
- T/C [2]: 102 % of control
- T/C [3]: 100 % of control

Structure (SMILES): CC12OC(=O)C(C(N)=O)=C1C=C(c1ccccc1)CC2c1ccccc1 (configuration not stated)
- T/C [4]: 96 % of control
- T/C (dose: 120.0 mg/kg/injection, schedule: Q01DX005 (ip), vehicle: saline with Tween-80): 96 % of control
- T/C (dose: 240.0 mg/kg/injection, schedule: Q01DX005 (ip), vehicle: saline with Tween-80): 89 % of control

Structure (SMILES): CN(C)CCCN1c2ccccc2Sc2ccc(F)cc21
- T/C [5]: 122 % of control

Structure (SMILES): CS(=O)(=O)Nc1ccc(Nc2c3ccccc3nc3cc(N)ccc23)cc1
- T/C (dose: 1.32 mg/kg/injection, schedule: Q04DX003 (ip), vehicle: saline): 154 % of control
- T/C (dose: 1.78 mg/kg/injection, schedule: Q04DX003 (ip), vehicle: saline): 167 % of control
- T/C (dose: 2.0 mg/kg/injection, schedule: Q04DX003 (ip), vehicle: saline): 172 % of control
- T/C (dose: 2.66 mg/kg/injection, schedule: Q04DX003 (ip), vehicle: saline): 158 % of control
- T/C (dose: 2.9 mg/kg/injection, schedule: Q04DX003 (ip), vehicle: saline): 187 % of control
- T/C (dose: 3.0 mg/kg/injection, schedule: Q04DX003 (ip), vehicle: saline): 181 % of control
- T/C (dose: 4.0 mg/kg/injection, schedule: Q04DX003 (ip), vehicle: saline): 155 % of control
- T/C (dose: 4.4 mg/kg/injection, schedule: Q04DX003 (ip), vehicle: saline): 204 % of control
- T/C (dose: 4.5 mg/kg/injection, schedule: Q04DX003 (ip), vehicle: saline): 163 % of control
- T/C (dose: 6.0 mg/kg/injection, schedule: Q04DX003 (ip), vehicle: saline): 192 % of control
- T/C (dose: 6.6 mg/kg/injection, schedule: Q04DX003 (ip), vehicle: saline): 212 % of control
- T/C (dose: 10.0 mg/kg/injection, schedule: Q04DX003 (ip), vehicle: saline): 112 % of control

Structure (SMILES): COC(=O)[C@@]1(O)CC(OC)=CC1=O
- T/C (dose: 5.0 mg/kg/injection, schedule: Q01DX005 (ip), vehicle: Klucel (hydroxypropylcellulose) (HPC)): 93 % of control
- T/C (dose: 10.0 mg/kg/injection, schedule: Q01DX005 (ip), vehicle: Klucel (hydroxypropylcellulose) (HPC)): 95 % of control
- T/C (dose: 20.0 mg/kg/injection, schedule: Q01DX005 (ip), vehicle: Klucel (hydroxypropylcellulose) (HPC)): 100 % of control
- T/C (dose: 40.0 mg/kg/injection, schedule: Q01DX005 (ip), vehicle: Klucel (hydroxypropylcellulose) (HPC)): 93 % of control
- T/C (dose: 80.0 mg/kg/injection, schedule: Q01DX005 (ip), vehicle: Klucel (hydroxypropylcellulose) (HPC)): 98 % of control

Structure (SMILES): CCCCCCCCCCCC(CCCCCCCCCC)CCCCCCCCCC
- T/C (dose: 50.0 mg/kg/injection, schedule: Q01DX001 (ip), vehicle: saline with Tween-80): 109 % of control
- T/C (dose: 100.0 mg/kg/injection, schedule: Q01DX001 (ip), vehicle: saline with Tween-80): 104 % of control
- T/C (dose: 200.0 mg/kg/injection, schedule: Q01DX001 (ip), vehicle: saline with Tween-80): 100 % of control

Structure (SMILES): Cc1nn(C(=O)c2ccncc2)c(C)c1N=Nc1ccc(S(=O)(=O)Nc2nccs2)cc1
- T/C (dose: 100.0 mg/kg/injection, schedule: Q04DX003 (ip), vehicle: saline): 96 % of control
- T/C (dose: 200.0 mg/kg/injection, schedule: Q04DX003 (ip), vehicle: saline): 97 % of control
- T/C (dose: 400.0 mg/kg/injection, schedule: Q04DX003 (ip), vehicle: saline): 110 % of control

Structure (SMILES): CC1(C)SC(C(NC(=O)COc2ccccc2)C(=O)O)NC1C(=O)O (configuration not stated)
- T/C (dose: 50.0 mg/kg/injection, schedule: Q04DX003 (ip), vehicle: saline with Tween-80): 90 % of control
- T/C [6]: 95 % of control
- T/C [7]: 95 % of control

Structure (SMILES): COc1ccc(S(=O)(=O)N/N=C/c2cnc[nH]2)cc1
- T/C (dose: 12.5 mg/kg/injection, schedule: Q01DX005 (ip), vehicle: Klucel (hydroxypropylcellulose) (HPC)): 100 % of control
- T/C (dose: 25.0 mg/kg/injection, schedule: Q01DX005 (ip), vehicle: Klucel (hydroxypropylcellulose) (HPC)): 97 % of control
- T/C (dose: 50.0 mg/kg/injection, schedule: Q01DX005 (ip), vehicle: Klucel (hydroxypropylcellulose) (HPC)): 97 % of control
- T/C (dose: 100.0 mg/kg/injection, schedule: Q01DX005 (ip), vehicle: Klucel (hydroxypropylcellulose) (HPC)): 88 % of control
- T/C (dose: 200.0 mg/kg/injection, schedule: Q01DX005 (ip), vehicle: Klucel (hydroxypropylcellulose) (HPC)): 90 % of control and 94 % of control
- T/C (dose: 400.0 mg/kg/injection, schedule: Q01DX005 (ip), vehicle: Klucel (hydroxypropylcellulose) (HPC)): 117 % of control

Structure (SMILES): CNc1nc(=O)n(-c2ccccc2)c(Cl)c1CCO
- T/C (dose: 75.0 mg/kg/injection, schedule: Q01DX001 (ip), vehicle: Klucel (hydroxypropylcellulose) (HPC)): 104 % of control
- T/C (dose: 150.0 mg/kg/injection, schedule: Q01DX001 (ip), vehicle: Klucel (hydroxypropylcellulose) (HPC)): 101 % of control
- T/C (dose: 300.0 mg/kg/injection, schedule: Q01DX001 (ip), vehicle: Klucel (hydroxypropylcellulose) (HPC)): 100 % of control

Structure (SMILES): C=CC(=NC(C)(C)C)N(CC)CC
- T/C (dose: 15.0 mg/kg/injection, schedule: Q01DX005 (ip), vehicle: saline with Tween-80): 103 % of control
- T/C (dose: 30.0 mg/kg/injection, schedule: Q01DX005 (ip), vehicle: saline with Tween-80): 105 % of control
- T/C [4]: 100 % of control and 106 % of control

Structure (SMILES): COP(=O)(OC)C(O)C1CCCCC1 (configuration not stated)
- T/C (dose: 12.5 mg/kg/injection, schedule: Q01DX009 (ip), vehicle: saline): 100 % of control
- T/C (dose: 25.0 mg/kg/injection, schedule: Q01DX009 (ip), vehicle: saline): 116 % of control
- T/C [5]: 100 % of control and 106 % of control
- T/C (dose: 200.0 mg/kg/injection, schedule: Q01DX009 (ip), vehicle: saline): 99 % of control

Structure (SMILES): Nc1nc(-c2ccc([N+](=O)[O-])cc2)c([N+](=O)[O-])c(=O)[nH]1
- T/C (dose: 3.0 mg/kg/injection, schedule: Q01DX009 (ip), vehicle: saline with Tween-80): 105 % of control
- T/C (dose: 6.0 mg/kg/injection, schedule: Q01DX009 (ip), vehicle: saline with Tween-80): 110 % of control
- T/C (dose: 12.0 mg/kg/injection, schedule: Q01DX009 (ip), vehicle: saline with Tween-80): 110 % of control

Structure (SMILES): O=C(O)c1cocc1C(=O)O
- T/C (dose: 60.0 mg/kg/injection, schedule: Q01DX005 (ip), vehicle: saline): 99 % of control
- T/C (dose: 120.0 mg/kg/injection, schedule: Q01DX005 (ip), vehicle: saline): 86 % of control

Structure (SMILES): CC(=O)OCC1OC(n2c(Br)nc3c(N)ncnc32)C(OC(C)=O)C1OC(C)=O (configuration not stated)
- T/C (dose: 50.0 mg/kg/injection, schedule: Q01DX005 (ip), vehicle: saline with Tween-80): 103 % of control
- T/C (dose: 100.0 mg/kg/injection, schedule: Q01DX005 (ip), vehicle: saline with Tween-80): 101 % of control
- T/C (dose: 200.0 mg/kg/injection, schedule: Q01DX005 (ip), vehicle: saline with Tween-80): 97 % of control

Structure (SMILES): O=c1ccnc(Sc2ccc([N+](=O)[O-])cc2[N+](=O)[O-])[nH]1
- T/C [6]: 99 % of control
- T/C [7]: 99 % of control

Structure (SMILES): O=C(N/N=C\C12CC3CC(CC(C3)C1)C2)c1ccncc1
- T/C [8]: 96 % of control
- T/C [9]: 90 % of control

Structure (SMILES): O=c1oc2ccccc2c2c1cnn2-c1ccccc1
- T/C (dose: 60.0 mg/kg/injection, schedule: Q01DX005 (ip), vehicle: Klucel (hydroxypropylcellulose) (HPC)): 103 % of control
- T/C (dose: 120.0 mg/kg/injection, schedule: Q01DX005 (ip), vehicle: Klucel (hydroxypropylcellulose) (HPC)): 105 % of control
- T/C (dose: 240.0 mg/kg/injection, schedule: Q01DX005 (ip), vehicle: Klucel (hydroxypropylcellulose) (HPC)): 104 % of control

Structure (SMILES): O=C(Nc1ccc(F)cc1)Nc1nccs1
- T/C (dose: 17.5 mg/kg/injection, schedule: Q01DX009 (ip), vehicle: Klucel (hydroxypropylcellulose) (HPC)): 108 % of control
- T/C (dose: 35.0 mg/kg/injection, schedule: Q01DX009 (ip), vehicle: Klucel (hydroxypropylcellulose) (HPC)): 110 % of control
- T/C [8]: 96 % of control
- T/C (dose: 70.0 mg/kg/injection, schedule: Q01DX009 (ip), vehicle: Klucel (hydroxypropylcellulose) (HPC)): 108 % of control
- T/C [9]: 95 % of control
- T/C (dose: 140.0 mg/kg/injection, schedule: Q01DX009 (ip), vehicle: Klucel (hydroxypropylcellulose) (HPC)): 115 % of control
- T/C (dose: 200.0 mg/kg/injection, schedule: Q01DX009 (ip), vehicle: saline with Tween-80): 104 % of control
